This is an account of results in ChEMBL document CHEMBL3632594, “Synthesis of scutellarein derivatives to increase biological activity and water solubility” (Bioorg Med Chem, 2015).

≈ marks a conversion by molar mass, not a printed value.

Data set [1] can be described thus: Solubility of compound in water at 0.1 to 10 ug/ml by UV spectrophotometry relative to scutellarein. It is filed as physicochemical. The note with it: buffer.
Data set [2] is described as follows: Antithrombotic activity in New Zealand white rabbit platelet poor plasma assessed as prolongation of thrombin time at 100 uM incubated for 3 mins by coagulometer based assay. It is filed as functional, Oryctolagus cuniculus.
A short description of data set [3]: Solubility of compound in water at 0.1 to 10 ug/ml by UV spectrophotometry. In kind it is physicochemical.
Data set [4] can be described thus: Neuroprotective activity against H2O2-induced cytotoxicity in rat PC12 cells assessed as cell viability at 50 uM by MTT assay. In kind it is functional. The following applies: PC-12, read-out: INH. (In general: Tetrazolium dyes change colour on reduction, which living cells bring about.)
The nature of data set [5]: Neuroprotective activity against H2O2-induced cytotoxicity in rat PC12 cells assessed as cell viability at 25 uM by MTT assay. The following applies: PC-12, read-out: INH. It is filed as functional.
Data set [6] in a line: Antithrombotic activity in New Zealand white rabbit platelet poor plasma assessed as increase in prothrombin time at 100 uM incubated for 3 mins by coagulometer based assay. It is filed as functional, Oryctolagus cuniculus.
A short description of data set [7]: Antithrombotic activity in New Zealand white rabbit platelet poor plasma assessed as fibrinogen at 100 uM incubated for 3 mins by coagulometer based assay. In kind it is functional, Oryctolagus cuniculus.
Data set [8] in a line: Antioxidant activity assessed as DPPH radical scavenging by spectrophotometric analysis. It is filed as physicochemical. On the technique in general: DPPH is a stable violet radical that fades when it is reduced.
The nature of data set [9]: Antithrombotic activity in New Zealand white rabbit platelet poor plasma assessed as increase in activated partial thromboplastin time at 100 uM incubated for 3 mins by coagulometer based assay. In kind it is functional, Oryctolagus cuniculus.

Regarding `CN(C)C(=O)Oc1ccc(-c2cc(=O)c3c(O)c(O)c(O)cc3o2)cc1`, the “fold change (FC)” value in data set [1] was determined as 1.4. Besides, the TT in data set [2] amounted to 24.3 s. The amount in solution in data set [3] (solubility) came to 9.56 µg/mL (≈ 26.8 µM). For the same compound, in data set [4], the cell viability at 50 µM is 71.2%. Further, the neuroprotection (% cell viability vs H2O2 cytotoxicity) at 25 µM in [5] was 48.7%. For the same compound, the PT in data set [6] amounted to 8.1 s. Moreover, in data set [7], the Activity was 5.56 g/L. The IC50 – broadly, the concentration that gives 50% inhibition – in data set [8] is 37.2 µM. The APTT in data set [9] was 27.78 s.

For `O=C(Oc1ccc(-c2cc(=O)c3c(O)c(O)c(O)cc3o2)cc1)N1CCOCC1`, in [1], the “fold change (FC)” value is 2.34. Besides, the TT in data set [2] worked out at 24.62 s. Moreover, the solubility – broadly, the concentration that dissolves in the medium under given conditions – in data set [3] is 15.3 µg/mL (≈ 38.4 µM). The cell viability at 50 µM in [4] stood at 94.2%. Moreover, the neuroprotection (% cell viability vs H2O2 cytotoxicity) at 25 µM in [5] was found to be 73.9%. Further, the PT in [6] turned out to be 8.55 s. The Activity in [7] turned out to be 5.52 g/L. Besides, the IC50 in data set [8] was 19.3 µM. Further, the APTT in [9] amounted to 28.28 s.

For the compound `CCN(CC)C(=O)Oc1ccc(-c2cc(=O)c3c(O)c(O)c(O)cc3o2)cc1`, the “fold change (FC)” value in data set [1] turned out to be 1.35. Moreover, in [2], the TT was found to be 24.36 s. Besides, the concentration in solution in [3] (solubility) was 9.23 µg/mL (≈ 24 µM). Also, the cell viability at 50 µM in data set [4] amounted to 75.2%. Further, the neuroprotection (% cell viability vs H2O2 cytotoxicity) at 25 µM in data set [5] is 51.3%. Moreover, in data set [6], the PT is listed as 7.67 s. For the same compound, the Activity in data set [7] turned out to be 5.21 g/L. Moreover, in data set [8], the IC50 came to 32.6 µM. Besides, in [9], the APTT is reported as 28.2 s.

As for `CC(C)N(C(=O)Oc1ccc(-c2cc(=O)c3c(O)c(O)c(O)cc3o2)cc1)C(C)C`, in data set [1], the “fold change (FC)” value is recorded as 1.27. In [2], the TT turned out to be 24.57 s. The same compound registered a solubility in [3] of 8.67 µg/mL (≈ 21 µM). The cell viability at 50 µM in [4] was determined as 93.4%. Also, in data set [5], the neuroprotection (% cell viability vs H2O2 cytotoxicity) at 25 µM was 71.7%. In data set [6], the PT worked out at 7.97 s. In addition, the Activity in [7] is listed as 5.65 g/L. Besides, the IC50 in data set [8] came to 17 µM. The APTT in [9] is on record as 27.97 s.

With `CN1CCN(C(=O)Oc2ccc(-c3cc(=O)c4c(O)c(O)c(O)cc4o3)cc2)CC1`, the “fold change (FC)” value in [1] turned out to be 2.2. In data set [2], the TT was found to be 24.52 s. Further, in [3], the concentration in solution (solubility) was 15.1 µg/mL (≈ 36.5 µM). Also, the cell viability at 50 µM in [4] was 92.5%. In data set [5], the neuroprotection (% cell viability vs H2O2 cytotoxicity) at 25 µM was found to be 68.6%. In addition, the PT in data set [6] was determined as 7.03 s. In addition, the Activity in data set [7] amounted to 5.42 g/L. The IC50 in [8] is 18.9 µM. The APTT in data set [9] was 26.87 s.

With `CN(C)C(=O)COc1ccc(-c2cc(=O)c3c(O)c(O)c(O)cc3o2)cc1`, the “fold change (FC)” value in [1] turned out to be 1.36. Further, the TT in data set [2] turned out to be 22.27 s. Besides, in [3], the concentration in solution (solubility) was 9.32 µg/mL (≈ 25.1 µM). Also, in [4], the cell viability at 50 µM came out at 68.1%. The neuroprotection (% cell viability vs H2O2 cytotoxicity) at 25 µM in [5] stood at 46.5%. Besides, the PT in data set [6] came to 7.17 s. For the same compound, in data set [7], the Activity was determined as 5.14 g/L. The IC50 in [8] was 80.7 µM. In addition, in data set [9], the APTT is 29.25 s.

Turning to `O=C(COc1ccc(-c2cc(=O)c3c(O)c(O)c(O)cc3o2)cc1)N1CCOCC1`, in data set [1], the “fold change (FC)” value amounted to 1.38. The TT in data set [2] is 19.9 s. In data set [3], this compound yielded a solubility of 9.45 µg/mL (≈ 22.9 µM). Further, the cell viability at 50 µM in data set [4] worked out at 64.6%. Also, the neuroprotection (% cell viability vs H2O2 cytotoxicity) at 25 µM in [5] was 43.4%. For the same compound, the PT in data set [6] was 7.33 s. Also, the Activity in data set [7] was 5.49 g/L. Besides, in data set [8], the IC50 worked out at 83.3 µM. For the same compound, the APTT in data set [9] worked out at 27.1 s.

For `CCN(CC)C(=O)COc1ccc(-c2cc(=O)c3c(O)c(O)c(O)cc3o2)cc1`, the “fold change (FC)” value in data set [1] is 1.31. In addition, the TT in data set [2] is reported as 20.92 s. In [3], this compound registered a solubility of 8.95 µg/mL (≈ 22.4 µM). In addition, the cell viability at 50 µM in data set [4] was determined as 66.4%. Also, the neuroprotection (% cell viability vs H2O2 cytotoxicity) at 25 µM in data set [5] was found to be 44.7%. In addition, the PT in data set [6] is given as 7.45 s. For the same compound, the Activity in data set [7] stood at 5.37 g/L. Also, the IC50 in [8] worked out at 81.3 µM. In [9], the APTT is 26.4 s.

In the case of `CN(C)CCOc1ccc(-c2cc(=O)c3c(O)c(O)c(O)cc3o2)cc1`, the “fold change (FC)” value in data set [1] is listed as 1.35. The TT in [2] stood at 22.97 s. This compound registered a solubility in data set [3] of 9.28 µg/mL (≈ 26 µM). Further, the cell viability at 50 µM in data set [4] came to 56.2%. Moreover, the neuroprotection (% cell viability vs H2O2 cytotoxicity) at 25 µM in data set [5] amounted to 35.8%. The PT in data set [6] was determined as 6.82 s. Besides, in [7], the Activity was 5.11 g/L. In data set [8], the IC50 amounted to 215 µM. For the same compound, the APTT in data set [9] came out at 29.97 s.

On to `O=c1cc(-c2ccc(OCCN3CCOCC3)cc2)oc2cc(O)c(O)c(O)c12`, for which the “fold change (FC)” value in [1] turned out to be 1.37. The TT in [2] worked out at 19.7 s. The same compound had a solubility in [3] of 9.4 µg/mL (≈ 23.5 µM). For the same compound, the cell viability at 50 µM in data set [4] was 48.2%. Also, in [5], the neuroprotection (% cell viability vs H2O2 cytotoxicity) at 25 µM is 32.3%. Also, in [6], the PT came out at 6.7 s. In addition, in data set [7], the Activity was determined as 5.23 g/L. The IC50 in data set [8] amounted to 264 µM. Moreover, in data set [9], the APTT is given as 29.05 s.

As for `CCN(CC)CCOc1ccc(-c2cc(=O)c3c(O)c(O)c(O)cc3o2)cc1`, in data set [1], the “fold change (FC)” value is recorded as 1.27. In [2], the TT amounted to 22.03 s. This compound also had a solubility in data set [3] of 8.68 µg/mL (≈ 22.5 µM). For the same compound, the cell viability at 50 µM in [4] was 58.4%. Further, the neuroprotection (% cell viability vs H2O2 cytotoxicity) at 25 µM in [5] stood at 38.5%. For the same compound, in [6], the PT amounted to 6.9 s. For the same compound, the Activity in data set [7] came to 5.72 g/L. The IC50 in data set [8] is 205 µM. Further, the APTT in data set [9] amounted to 30.45 s.

Take `CN(C)CCCOc1ccc(-c2cc(=O)c3c(O)c(O)c(O)cc3o2)cc1`: in data set [1], the “fold change (FC)” value was 1.24. Moreover, the TT in data set [2] turned out to be 19.9 s. This compound also gave a solubility in data set [3] of 8.5 µg/mL (≈ 22.9 µM). In data set [4], the cell viability at 50 µM turned out to be 52.2%. Further, in [5], the neuroprotection (% cell viability vs H2O2 cytotoxicity) at 25 µM is 33.6%. Moreover, the PT in data set [6] came out at 6.15 s. In addition, in [7], the Activity stood at 5.28 g/L. Also, the IC50 in data set [8] was 231 µM. Besides, in data set [9], the APTT was 26.58 s.

Consider `O=c1cc(-c2ccc(OCCCN3CCOCC3)cc2)oc2cc(O)c(O)c(O)c12`, for which, in [1], the “fold change (FC)” value turned out to be 1.25. The TT in data set [2] stood at 19.6 s. The compound also gave a solubility in data set [3] of 8.56 µg/mL (≈ 20.7 µM). Also, the cell viability at 50 µM in data set [4] was determined as 44.2%. Besides, the neuroprotection (% cell viability vs H2O2 cytotoxicity) at 25 µM in [5] is 28.3%. For the same compound, the PT in data set [6] is 6.63 s. The Activity in [7] is recorded as 5.42 g/L. The IC50 in data set [8] was 274 µM. In addition, the APTT in data set [9] was 28.25 s.

Turning to `O=c1cc(-c2ccc(O)cc2)oc2cc(O)c(O)c(O)c12` [SCUTELLAREIN], in [1], the “fold change (FC)” value was 1. Moreover, the TT in data set [2] was 24.4 s. In addition, in [4], the cell viability at 50 µM was 91.2%. The neuroprotection (% cell viability vs H2O2 cytotoxicity) at 25 µM in [5] was found to be 64.6%. Also, in data set [6], the PT was determined as 5.93 s. For the same compound, the Activity in [7] is 6.84 g/L. Moreover, the IC50 in [8] is 22.6 µM. Besides, the APTT in [9] came out at 36.65 s.

As for `O=C(O)[C@H]1O[C@@H](Oc2cc3oc(-c4ccc(O)cc4)cc(=O)c3c(O)c2O)[C@H](O)[C@@H](O)[C@@H]1O` [SCUTELLARIN], the TT in data set [2] is given as 23.08 s. For the same compound, the cell viability at 50 µM in data set [4] was determined as 79.2%. Further, the neuroprotection (% cell viability vs H2O2 cytotoxicity) at 25 µM in data set [5] worked out at 53.1%. Moreover, in data set [6], the PT is recorded as 6.28 s. Besides, the Activity in [7] is recorded as 6.13 g/L. Besides, the IC50 in data set [8] came out at 27.9 µM. Further, the APTT in [9] was 34.18 s.
